The values below come from PubChem BioAssay AID222 (DTP/NCI, 2004).

The subject of this assay is C57BL/6 mice, intracerebral ependymoblastoma, median survival T/C. Nature of the assay: NCI In Vivo Anticancer Drug Screen. Data for tumor model Ependymoblastoma (intracerebral) in C57BL/6 mice. The settings on record: endpoint: median survival time, higher = longer survival. As to the method:
The antitumor activity of compounds was measured in mice bearing transplantable tumors. Survival or tumor size were measured and the results are expressed as the measurement made in the treated group (T) divided by the measurement made in the vehicle treated control group (C). The tumor model used in this assay is Ependymoblastoma (intracerebral) in C57BL/6 mice

The mark [1] stands for this setting: dose: 45.0 mg/kg/injection, schedule: Q01DX005 (ip), vehicle: saline with Tween-80.
The mark [2] stands for this setting: dose: 90.0 mg/kg/injection, schedule: Q01DX005 (ip), vehicle: saline with Tween-80.
Where [3] appears, read: dose: 4.0 mg/kg/injection, schedule: Q01DX005 (ip), vehicle: Klucel (hydroxypropylcellulose) (HPC).
Where [4] appears, read: dose: 16.0 mg/kg/injection, schedule: Q01DX005 (ip), vehicle: Klucel (hydroxypropylcellulose) (HPC).

SMILES strings stand for the structures. Values joined by “and” are separate entries in the source; they are usually repeats but may differ in a detail not shown here. Equal values may be shown once. Inconclusive results and toxic doses are left out. Starred links: 1 amine or outer side, 2 acyl side, 3 side chain; linkers in the order of their positions; H or OH if unused. Positions of bridges follow the written chain, without caps; N, C: chain ends. Non-standard residues stand in square brackets, D forms with d. Residues, ends and D or L forms follow the SMILES beside them. Chains are numbered I, II in the order given. Actinocin(9to1) = Cc1c2oc3c(C)ccc(C(=O)[*:1])c3nc-2c(C(=O)[*:2])c(N)c1=O; aThr = C[C@H](O)[C@H](N)C(=O)O; NMeV = CN[C@H](C(=O)O)C(C)C; Sar = CNCC(=O)O

For `ClC(Cl)=C(Cl)Cl`, the T/C runs as follows: (dose: 22.0 mg/kg/injection, schedule: Q01DX005 (ip), vehicle: saline with Tween-80) 111 % of control; under setting [1], 90 % of control; under setting [2], 88 % of control and 92 % of control.
Consider `C1CN1c1nc(N2CC2)nc(N2CC2)n1`, for which the T/C reads like this: (dose: 0.12 mg/kg/injection, schedule: Q01DX005 (ip), vehicle: saline) 111 % of control; (dose: 0.25 mg/kg/injection, schedule: Q01DX005 (ip), vehicle: saline) 124 % of control.
For the compound `NC(=O)N(CCCl)N=O`, the T/C is 118 % of control (dose: 0.5 mg/kg/injection, schedule: Q01DX005 (ip), vehicle: saline + alcohol) and 276 % of control (dose: 2.0 mg/kg/injection, schedule: Q01DX005 (ip), vehicle: saline + alcohol).
With `Nc1ccc(S(N)(=O)=O)cc1`, the T/C was 97 % of control under setting [1]; 88 % of control under setting [2]; 96 % of control (dose: 180.0 mg/kg/injection, schedule: Q01DX005 (ip), vehicle: saline with Tween-80); 100 % of control (dose: 360.0 mg/kg/injection, schedule: Q01DX005 (ip), vehicle: saline with Tween-80); 90 % of control (dose: 720.0 mg/kg/injection, schedule: Q01DX005 (ip), vehicle: saline with Tween-80).
In the case of `Cc1c2oc3c(C)ccc(C(=O)N[C@@H]4C(=O)N[C@H](C(C)C)C(=O)N5CCC[C@H]5C(=O)N(C)CC(=O)N(C)[C@@H](C(C)C)C(=O)O[C@H]4C)c3nc-2c(C(=O)N[C@@H]2C(=O)N[C@H](C(C)C)C(=O)N3CCC[C@H]3C(=O)N(C)CC(=O)N(C)[C@@H](C(C)C)C(=O)O[C@H]2C)c(N)c1=O` (I: [aThr][dV]P[Sar][NMeV] / II: [aThr][dV]P[Sar][NMeV]; ester I:1-I:C, II:1-II:C; linker I:N-II:N via Actinocin(9to1)), the T/C by setting is: (dose: 12.5 micrograms/kg/injection, schedule: Q01DX005 (ip), vehicle: saline) 116 % of control; (dose: 25.0 micrograms/kg/injection, schedule: Q01DX005 (ip), vehicle: saline) 97 % of control; (dose: 50.0 micrograms/kg/injection, schedule: Q01DX005 (ip), vehicle: saline) 101 % of control.
`COc1cc2c(c(OC)c1OC)-c1ccc(OC)c(=O)cc1[C@@H](NC(C)=O)CC2`: the T/C by setting is: (dose: 0.05 mg/kg/injection, schedule: Q01DX005 (ip), vehicle: saline) 104 % of control; (dose: 0.1 mg/kg/injection, schedule: Q01DX005 (ip), vehicle: saline) 98 % of control; (dose: 0.2 mg/kg/injection, schedule: Q01DX005 (ip), vehicle: saline) 108 % of control; (dose: 0.4 mg/kg/injection, schedule: Q01DX005 (ip), vehicle: saline) 90 % of control; (dose: 0.8 mg/kg/injection, schedule: Q01DX005 (ip), vehicle: saline) 103 % of control.
With `O=C1C(=O)c2ccccc2C(O)=C1CC=C(Cl)Cl`, the T/C is 102 % of control and 109 % of control under setting [3]; 100 % of control and 122 % of control (dose: 8.0 mg/kg/injection, schedule: Q01DX005 (ip), vehicle: Klucel (hydroxypropylcellulose) (HPC)); 104 % of control and 113 % of control under setting [4]; 107 % of control and 108 % of control (dose: 32.0 mg/kg/injection, schedule: Q01DX005 (ip), vehicle: Klucel (hydroxypropylcellulose) (HPC)); 101 % of control and 105 % of control (dose: 64.0 mg/kg/injection, schedule: Q01DX005 (ip), vehicle: Klucel (hydroxypropylcellulose) (HPC)).
On to `Nc1nc([Se])c2ncn(C3OC(CO)C(O)C3O)c2n1` (stereo not drawn), for which the T/C by setting is: (dose: 0.25 mg/kg/injection, schedule: Q01DX005 (ip), vehicle: Klucel (hydroxypropylcellulose) (HPC)) 103 % of control and 106 % of control; (dose: 0.5 mg/kg/injection, schedule: Q01DX005 (ip), vehicle: Klucel (hydroxypropylcellulose) (HPC)) 107 % of control and 112 % of control; (dose: 1.0 mg/kg/injection, schedule: Q01DX005 (ip), vehicle: Klucel (hydroxypropylcellulose) (HPC)) 99 % of control and 101 % of control; (dose: 2.0 mg/kg/injection, schedule: Q01DX005 (ip), vehicle: Klucel (hydroxypropylcellulose) (HPC)) 100 % of control and 102 % of control and 112 % of control; under setting [3], 88 % of control and 105 % of control and 112 % of control; (dose: 4.0 mg/kg/injection, schedule: Q01DX005 (ip), vehicle: saline with Tween-80) 96 % of control. For the same compound, the T/C is 100 % of control (dose: 4.0 mg/kg/injection, schedule: Q01DX005 (ip), vehicle: saline); 100 % of control (dose: 8.0 mg/kg/injection, schedule: Q01DX005 (ip), vehicle: saline with Tween-80); 98 % of control and 99 % of control (dose: 8.0 mg/kg/injection, schedule: Q01DX005 (ip), vehicle: saline); 102 % of control and 103 % of control under setting [4]; 113 % of control (dose: 16.0 mg/kg/injection, schedule: Q01DX005 (ip), vehicle: saline with Tween-80); 106 % of control and 111 % of control (dose: 16.0 mg/kg/injection, schedule: Q01DX005 (ip), vehicle: saline). Besides, the T/C is 108 % of control (dose: 27.8 mg/kg/injection, schedule: Q## X006 (ip), vehicle: saline); 116 % of control (dose: 32.0 mg/kg/injection, schedule: Q01DX005 (ip), vehicle: saline); 95 % of control and 104 % of control (dose: 32.0 mg/kg/injection, schedule: Q#A X002 (ip), vehicle: saline); 112 % of control (dose: 55.7 mg/kg/injection, schedule: Q## X006 (ip), vehicle: saline); 101 % of control and 120 % of control (dose: 64.0 mg/kg/injection, schedule: Q#A X002 (ip), vehicle: saline); 87 % of control (dose: 128.0 mg/kg/injection, schedule: Q#A X002 (ip), vehicle: saline).
